Reference: ChEMBL document CHEMBL5725430, “Dihydro-benzo-oxazine and dihydro-pyrido-oxazine derivatives” (2017)
Values joined by “and” are separate entries in the source; they are usually repeats but may differ in a detail not shown here. Equal values may be shown once.

How the values were obtained:
[1] = biological target: Phosphatidylinositol 4,5-bisphosphate 3-kinase catalytic subunit alpha isoform (Homo sapiens, UniProt P42336); assay: (§1) The final concentrations of ATP and phosphatidyl inositol in the assay are 5 μM and 6 μg/mL, respectively. The reaction is started by the addition of PI3 kinase, e.g. PI3 kinase 6.p110δ.The components of the assay are added per well as follows 10 μl test compound in 5% DMSO per well in columns 2-1. Total activity is determined by addition 10 μl of 5% vol/vol DMSO in the first 4 wells of column 1 and the last 4 wells of column 12. The background is determined by addition of 10 μM control compound to the last 4 wells of column 1 and the first 4 wells of column 12. 2 mL Assay mix are prepared per plate 1.912 mL of HEPES assay buffer 8.33 μl of 3 mM stock of ATP giving a final concentration of 5 μM per well 1 μl of [33P]ATP on the activity date giving 0.05 μCi per well 30 μl of 1 mg/mL PI stock giving a final concentration of 6 μg/mL per well 5 μl of 1 M stock MgCl2 giving a final concentration of 1 mM per well 20 μl of the assay mix are added per well. 2 mL Enzyme mix are prepared per plate (x* μl PI3 kinase p110(3 in 2 mL of kinase buffer). The Enzyme mix is kept on ice during addition to the assay plates. 20 μl ‘Enzyme mix’ are added/well to start the reaction. The plate is then incubated at room temperature for 90 minutes. The reaction is terminated by the addition of 50 μl WGA-SPA bead (wheat germ agglutinin-coated Scintillation Proximity Assay beads) suspension per well. The assay plate is sealed using TopSeal-S (heat seal for polystyrene microplates, PerkinElmer LAS [Deutschland] GmbH, Rodgau, Germany) and incubated at room temperature for at least 60 minutes. The assay plate is then centrifuged at 1500 rpm for 2 minutes using the Jouan bench top centrifuge (Jouan Inc., Nantes, France). The assay plate is counted using a Packard TopCount, each well being counted for 20 seconds. The volume of enzyme is dependent on the enzymatic activity of the batch in use.In a more preferred assay, the kinase reaction is performed in a final volume of 10 μl per well of a low volume non-binding CORNING, 384 well black plate (Cat. No. #3676). The final concentrations of ATP and phosphatidyl inositol (PI) in the assay are 1 μM and 10 μg/mL, respectively. The reaction is started by the addition of ATP.The components of the assay are added per well as follows:50 nl test compounds in 90% DMSO per well, in columns 1-20, 8 concentrations (⅓ and 1/3.33 serial dilution step) in single. Low control: 50 nl of 90% DMSO in half the wells of columns 23-24 (0.45% in final). High control: 50 nl of reference compound (e.g. compound of Example 7 in WO 2006/122806) in the other half of columns 23-24 (2.5 μM in final). Standard: 50 nl of reference compound as just mentioned diluted as the test compounds in columns 21-22. 20 mL buffer are prepared per assay 200 μl of 1M TRIS HCl pH7.5 (10 mM in final) 60 μl of 1M MgCl2 (3 mM in final) 500 μl of 2M NaCl (50 mM in final) 100 μl of 10% CHAPS (0.05% in final) 200 μl of 100 mM DTT (1 mM in final) 18.94 mL of nanopure water 10 mL PI are prepared per assay 200 μl of 1 mg/mL 1-alpha-Phosphatidylinositol (Liver Bovine, Avanti Polar Lipids Cat. No. 840042C MW=909.12) prepared in 3% OctylGlucoside (10 μg/mL in final) 9.8 mL of buffer 10 mL ATP are prepared per assay.
Chain of Phosphatidylinositol 4,5-bisphosphate 3-kinase catalytic subunit alpha isoform (P42336 whole entry, canonical isoform): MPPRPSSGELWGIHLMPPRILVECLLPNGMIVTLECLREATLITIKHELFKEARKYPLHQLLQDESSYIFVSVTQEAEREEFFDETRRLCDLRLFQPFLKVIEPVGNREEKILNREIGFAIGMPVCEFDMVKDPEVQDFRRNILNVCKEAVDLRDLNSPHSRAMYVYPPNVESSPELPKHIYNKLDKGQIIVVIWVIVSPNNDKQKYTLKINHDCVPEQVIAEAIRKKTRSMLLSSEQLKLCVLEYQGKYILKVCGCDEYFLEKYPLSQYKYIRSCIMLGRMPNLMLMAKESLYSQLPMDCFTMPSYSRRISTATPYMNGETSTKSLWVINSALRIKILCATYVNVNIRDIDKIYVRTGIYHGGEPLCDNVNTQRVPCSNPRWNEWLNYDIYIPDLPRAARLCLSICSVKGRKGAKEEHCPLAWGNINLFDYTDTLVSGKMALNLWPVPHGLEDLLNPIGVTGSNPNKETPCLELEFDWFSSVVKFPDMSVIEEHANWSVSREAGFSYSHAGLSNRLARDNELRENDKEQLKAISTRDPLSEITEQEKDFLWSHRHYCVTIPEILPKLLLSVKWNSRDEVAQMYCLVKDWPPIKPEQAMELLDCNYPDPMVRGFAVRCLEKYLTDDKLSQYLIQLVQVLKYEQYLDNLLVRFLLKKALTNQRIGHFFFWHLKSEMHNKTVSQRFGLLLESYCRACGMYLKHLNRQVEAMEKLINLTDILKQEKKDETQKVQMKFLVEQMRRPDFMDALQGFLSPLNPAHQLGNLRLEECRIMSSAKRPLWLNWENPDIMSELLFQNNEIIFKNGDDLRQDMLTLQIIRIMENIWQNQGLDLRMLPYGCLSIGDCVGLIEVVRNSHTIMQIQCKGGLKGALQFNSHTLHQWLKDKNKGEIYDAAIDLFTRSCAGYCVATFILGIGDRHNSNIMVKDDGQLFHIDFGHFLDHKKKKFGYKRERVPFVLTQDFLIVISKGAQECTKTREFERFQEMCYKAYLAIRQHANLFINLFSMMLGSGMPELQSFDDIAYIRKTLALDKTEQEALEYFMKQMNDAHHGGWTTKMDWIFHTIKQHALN

[2] = biological target: T1, Phosphatidylinositol 4,5-bisphosphate 3-kinase catalytic subunit delta isoform (Homo sapiens, UniProt O00329); assay: as §1
T1 sequence (O00329 whole entry): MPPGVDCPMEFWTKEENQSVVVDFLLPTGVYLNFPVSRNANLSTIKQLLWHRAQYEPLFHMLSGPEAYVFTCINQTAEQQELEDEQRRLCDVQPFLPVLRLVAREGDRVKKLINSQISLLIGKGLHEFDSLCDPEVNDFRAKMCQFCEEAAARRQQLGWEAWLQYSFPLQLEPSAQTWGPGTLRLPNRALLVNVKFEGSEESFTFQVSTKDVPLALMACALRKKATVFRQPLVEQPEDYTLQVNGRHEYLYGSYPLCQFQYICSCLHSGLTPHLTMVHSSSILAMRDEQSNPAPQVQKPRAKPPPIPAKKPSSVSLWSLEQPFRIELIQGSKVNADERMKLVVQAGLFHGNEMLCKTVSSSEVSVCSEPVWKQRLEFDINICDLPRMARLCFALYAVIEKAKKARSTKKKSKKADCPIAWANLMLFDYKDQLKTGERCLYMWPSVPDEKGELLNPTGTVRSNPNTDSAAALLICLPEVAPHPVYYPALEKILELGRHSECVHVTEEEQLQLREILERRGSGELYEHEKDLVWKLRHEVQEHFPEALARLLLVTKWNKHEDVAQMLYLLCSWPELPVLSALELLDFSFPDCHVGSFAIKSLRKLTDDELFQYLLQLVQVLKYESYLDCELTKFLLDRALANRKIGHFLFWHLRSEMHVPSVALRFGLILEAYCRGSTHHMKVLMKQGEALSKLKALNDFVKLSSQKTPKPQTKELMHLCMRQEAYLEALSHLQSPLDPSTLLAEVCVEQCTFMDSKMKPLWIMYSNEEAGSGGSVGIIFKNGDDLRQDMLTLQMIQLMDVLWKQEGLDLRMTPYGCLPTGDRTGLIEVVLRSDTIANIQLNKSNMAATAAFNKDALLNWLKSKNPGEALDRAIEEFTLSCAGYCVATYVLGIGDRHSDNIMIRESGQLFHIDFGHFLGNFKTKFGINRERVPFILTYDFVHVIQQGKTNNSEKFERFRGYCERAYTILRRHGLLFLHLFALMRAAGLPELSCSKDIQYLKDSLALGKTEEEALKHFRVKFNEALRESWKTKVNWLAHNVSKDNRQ

Row | Structure (SMILES) | IC50 [1] | IC50 [2]
1 | Cc1cc(N2CCOc3ccc(O[C@H]4CCN(C(=O)c5cn(C)cn5)C4)cc32)cnc1Cl | 193 nM | 32 nM
2 | Cc1cc(N2CCOc3cnc(O[C@H]4CCN(C(=O)C5CCS(=O)(=O)CC5)C4)cc32)cnc1OC(F)F | 870 nM | 10 nM
3 | O=C(C1CCOCC1)N1CC[C@H](Oc2ccc3c(c2)N(c2cncc(S(=O)(=O)N4CCOCC4)c2)CCO3)C1 | 313 nM | 3 nM
4 | O=C(C1CCOCC1)N1CC[C@H](Oc2ccc3c(c2)N(c2cncc(C(F)(F)F)c2)CCO3)C1 | 377 nM | 9 nM
5 | Cc1cc(N2CCOc3ccc(O[C@H]4CCN(C(=O)c5ccc(=O)[nH]c5)C4)cc32)cnc1Cl | 795 nM | 35 nM

Results, then the compound that gave them:

Row | IC50 [1] | IC50 [2] | Structure (SMILES)
6 | 463 nM | 11 nM | COc1ncc(N2CCOc3ccc(O[C@H]4CCN(C(=O)C(C)C)C4)cc32)cc1C#N
7 | 209 nM | 10.2 nM | COc1ncc(N2CCOc3ccc(O[C@H]4CCN(C(=O)c5cn(C)cn5)C4)cc32)cc1F
8 | 496 nM | 41 nM | COc1cc(N2CCOc3ccc(O[C@H]4CCN(C(=O)c5cn(C)cn5)C4)cc32)cnc1Cl
9 | 4660 nM | 37 nM | Cc1ccc(N2CCOc3ccc(O[C@H]4CCN(C(=O)C5CCOCC5)C4)cc32)cn1
10 | 2240 nM | 110 nM | CC(C)S(=O)(=O)c1cncc(N2CCOc3ccc(O[C@H]4CCN(C(=O)C5CCOCC5)C4)cc32)c1
11 | 870 nM | 35 nM | COc1cc(N2CCOc3ccc(O[C@H]4CCN(C(=O)C5CCC(F)(F)CC5)C4)cc32)cnc1S(C)(=O)=O
12 | 703 nM and 521 nM | 5 nM and 7 nM | COc1cc(N2CCOc3ccc(O[C@H]4CCN(C(=O)C5CCCO5)C4)cc32)cnc1OC (single isomer, unassigned)
